Source: patent US20240336612A1, “BRM Targeting Compounds And Associated Methods Of Use” (Prelude Therapeutics Incorporated, priority 2021, published 2024)

Tests used:
SMARCA2 = target: T1, SMARCA2 (Homo sapiens, UniProt P51531); assay: SMARCA2 HiBiT degradation assay in HeLa cells; type: cell-based; details: 18 hours incubation; for DC50: read-out: DC50 (SM2-HeLa), SMARCA2 degradation potency; for Dmax: read-out: Dmax % (SM2-HeLa), maximum SMARCA2 degradation within the concentrations tested
T1 construct: SMARCA2-HiBiT knock-in Hela monoclonal cell (CS302366); host or cells: HeLa (HiBiT knock-in monoclonal line)
Method: (§1) SMARCA2 HiBiT and SMARCA4 HiBiT Degradation Assay (cellular)
(§2) Preparation of SMARCA2/4-HiBiT Knock-In Cells
(§3) SMARCA2-HiBiT knock-in Hela monoclonal cell (CS302366) and SMARCA4-HiBiT knock-in Hela monoclonal cell (CS3023226) were purchased from Promega. The heterozygous HiBiT-knock-in was confirmed by sanger sequence in both SMARCA2-HiBiT and SMARCA4-HiBiT monoclonal cells.
(§4) SMARCA2 HiBiT and SMARCA4 HiBiT Degradation Assay in HeLa Cells
(§5) Dispense 10 μL aliquot of prepared Hela-SMARCA2-HiBiT or Hela-SMARCA4-HiBiT cells (1:1 ratio of cells:Trypan Blue (#1450013, Bio-Rad)) onto cell counting slide (#145-0011, Bio-Rad) and obtain cell density and cell viability using cell counter (TC20, Bio-Rad). Remove appropriate volume of resuspended cells from culture flask to accommodate 2500 cells/well @ 20 μL/well. Transfer Hela-HiBiT cells to 50 ml conical (#430290, Corning). Spin down at 1000 rpm for 5 min using tabletop centrifuge (SPINCHRON 15, Beckman). Discard supernatant and resuspend cell pellet in modified EMEM (#30-2003, ATCC) cell culture media containing 10% FBS (F2422-500ML, Sigma), and 1× Penicillin/Streptomycin (200 g/l) (30-002-CI, Corning) to a cell density of 125,000 cells/ml. Dispense 20 μL of resuspended Hela-HiBit cells per well in 384-well TC treated plate (#12-565-343, Thermo Scientific) using standard cassette (#50950372, Thermo Scientific) on Multidrop Combi (#5840310, Thermo Scientific) inside laminar flow cabinet. Dispense test compounds onto plates using digital liquid dispenser (D300E, Tecan). Incubate plates in humidified tissue culture incubator @37° C. for 18 hours. Add 20 ul of prepared Nano-Glo® HiBiT Lytic detection buffer (N3050, Promega) to each well of 384-well plate using small tube cassette (#24073295, Thermo Scientific) on Multidrop Combi, incubate @ RT for 30-60 min. Read plates on microplate reader (Envision 2105, PerkinElmer) using 384 well Ultra-Sensitive luminescence mode. Raw data files and compound information reports are swept into centralized data lake and deconvoluted using automated scripts designed by TetraScience, Inc. Data analysis, curve-fitting and reporting done in Dotmatics Informatics Suite using Screening Ultra module.
(§6) The results are shown below in Table 4 for the HiBiT assay. In Table 4, the DC50/Dmax% (SM2-HeLa) refers to SMARCA2 degradation potency/maximum SMARCA2 degradation within the concentrations tested in HeLa HiBiT assay. In Table 4, the DC50/Dmax% (SM4-HeLa) refers to SMARCA4 degradation potency/maximum SMARCA4 degradation within the concentrations tested in HeLa HiBiT assay.

SMARCA4 = target: T2, SMARCA4 (Homo sapiens, UniProt P51532); assay: SMARCA4 HiBiT degradation assay in HeLa cells; type: cell-based; details: 18 hours incubation; for DC50: read-out: DC50 (SM4-HeLa), SMARCA4 degradation potency; for Dmax: read-out: Dmax % (SM4-HeLa), maximum SMARCA4 degradation within the concentrations tested
T2 construct: SMARCA4-HiBiT knock-in Hela monoclonal cell (CS3023226); host or cells: HeLa (HiBiT knock-in monoclonal line)
Method: as §1, §2, §3, §4, §5, §6

T1 sequence (P51531 whole entry): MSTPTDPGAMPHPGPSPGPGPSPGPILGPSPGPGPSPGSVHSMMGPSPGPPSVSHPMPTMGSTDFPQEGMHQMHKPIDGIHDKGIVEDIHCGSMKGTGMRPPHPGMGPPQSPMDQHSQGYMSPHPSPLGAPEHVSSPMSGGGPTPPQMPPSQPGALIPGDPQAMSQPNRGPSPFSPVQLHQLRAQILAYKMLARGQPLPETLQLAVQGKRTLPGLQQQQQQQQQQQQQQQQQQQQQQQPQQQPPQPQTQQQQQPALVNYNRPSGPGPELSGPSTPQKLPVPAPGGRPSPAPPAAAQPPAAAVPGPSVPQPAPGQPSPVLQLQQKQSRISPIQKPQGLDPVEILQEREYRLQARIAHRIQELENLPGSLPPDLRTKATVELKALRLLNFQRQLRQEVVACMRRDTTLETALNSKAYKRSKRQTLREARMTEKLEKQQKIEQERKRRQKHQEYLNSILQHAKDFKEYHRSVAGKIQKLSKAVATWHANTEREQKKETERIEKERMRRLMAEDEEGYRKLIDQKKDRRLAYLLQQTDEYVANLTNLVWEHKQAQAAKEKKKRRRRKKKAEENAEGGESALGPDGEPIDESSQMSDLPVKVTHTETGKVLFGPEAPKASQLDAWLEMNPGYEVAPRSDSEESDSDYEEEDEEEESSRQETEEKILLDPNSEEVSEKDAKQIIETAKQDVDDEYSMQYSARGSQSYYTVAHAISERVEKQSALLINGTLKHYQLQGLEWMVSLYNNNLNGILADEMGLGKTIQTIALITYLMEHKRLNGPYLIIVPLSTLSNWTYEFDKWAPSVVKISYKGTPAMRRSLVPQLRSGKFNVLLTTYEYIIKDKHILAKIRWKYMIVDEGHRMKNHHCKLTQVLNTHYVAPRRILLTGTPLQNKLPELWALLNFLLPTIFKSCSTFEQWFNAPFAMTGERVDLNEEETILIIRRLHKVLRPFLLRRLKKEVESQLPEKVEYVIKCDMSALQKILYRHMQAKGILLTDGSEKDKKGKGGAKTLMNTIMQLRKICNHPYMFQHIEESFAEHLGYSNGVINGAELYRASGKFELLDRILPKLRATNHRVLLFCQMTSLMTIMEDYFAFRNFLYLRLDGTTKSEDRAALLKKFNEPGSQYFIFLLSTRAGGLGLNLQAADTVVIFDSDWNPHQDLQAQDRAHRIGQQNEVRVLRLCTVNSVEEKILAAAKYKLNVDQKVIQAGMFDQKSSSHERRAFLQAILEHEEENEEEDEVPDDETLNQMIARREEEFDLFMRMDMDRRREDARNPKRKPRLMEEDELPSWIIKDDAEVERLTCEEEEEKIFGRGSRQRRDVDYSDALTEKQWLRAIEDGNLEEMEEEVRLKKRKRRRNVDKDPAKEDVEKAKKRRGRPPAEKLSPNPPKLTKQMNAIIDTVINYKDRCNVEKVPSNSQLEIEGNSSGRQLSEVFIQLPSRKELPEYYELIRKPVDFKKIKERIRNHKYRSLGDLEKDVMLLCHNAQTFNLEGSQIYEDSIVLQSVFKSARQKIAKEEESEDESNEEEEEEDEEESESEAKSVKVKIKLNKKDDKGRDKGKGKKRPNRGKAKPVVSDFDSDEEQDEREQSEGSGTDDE
T2 sequence (P51532 whole entry): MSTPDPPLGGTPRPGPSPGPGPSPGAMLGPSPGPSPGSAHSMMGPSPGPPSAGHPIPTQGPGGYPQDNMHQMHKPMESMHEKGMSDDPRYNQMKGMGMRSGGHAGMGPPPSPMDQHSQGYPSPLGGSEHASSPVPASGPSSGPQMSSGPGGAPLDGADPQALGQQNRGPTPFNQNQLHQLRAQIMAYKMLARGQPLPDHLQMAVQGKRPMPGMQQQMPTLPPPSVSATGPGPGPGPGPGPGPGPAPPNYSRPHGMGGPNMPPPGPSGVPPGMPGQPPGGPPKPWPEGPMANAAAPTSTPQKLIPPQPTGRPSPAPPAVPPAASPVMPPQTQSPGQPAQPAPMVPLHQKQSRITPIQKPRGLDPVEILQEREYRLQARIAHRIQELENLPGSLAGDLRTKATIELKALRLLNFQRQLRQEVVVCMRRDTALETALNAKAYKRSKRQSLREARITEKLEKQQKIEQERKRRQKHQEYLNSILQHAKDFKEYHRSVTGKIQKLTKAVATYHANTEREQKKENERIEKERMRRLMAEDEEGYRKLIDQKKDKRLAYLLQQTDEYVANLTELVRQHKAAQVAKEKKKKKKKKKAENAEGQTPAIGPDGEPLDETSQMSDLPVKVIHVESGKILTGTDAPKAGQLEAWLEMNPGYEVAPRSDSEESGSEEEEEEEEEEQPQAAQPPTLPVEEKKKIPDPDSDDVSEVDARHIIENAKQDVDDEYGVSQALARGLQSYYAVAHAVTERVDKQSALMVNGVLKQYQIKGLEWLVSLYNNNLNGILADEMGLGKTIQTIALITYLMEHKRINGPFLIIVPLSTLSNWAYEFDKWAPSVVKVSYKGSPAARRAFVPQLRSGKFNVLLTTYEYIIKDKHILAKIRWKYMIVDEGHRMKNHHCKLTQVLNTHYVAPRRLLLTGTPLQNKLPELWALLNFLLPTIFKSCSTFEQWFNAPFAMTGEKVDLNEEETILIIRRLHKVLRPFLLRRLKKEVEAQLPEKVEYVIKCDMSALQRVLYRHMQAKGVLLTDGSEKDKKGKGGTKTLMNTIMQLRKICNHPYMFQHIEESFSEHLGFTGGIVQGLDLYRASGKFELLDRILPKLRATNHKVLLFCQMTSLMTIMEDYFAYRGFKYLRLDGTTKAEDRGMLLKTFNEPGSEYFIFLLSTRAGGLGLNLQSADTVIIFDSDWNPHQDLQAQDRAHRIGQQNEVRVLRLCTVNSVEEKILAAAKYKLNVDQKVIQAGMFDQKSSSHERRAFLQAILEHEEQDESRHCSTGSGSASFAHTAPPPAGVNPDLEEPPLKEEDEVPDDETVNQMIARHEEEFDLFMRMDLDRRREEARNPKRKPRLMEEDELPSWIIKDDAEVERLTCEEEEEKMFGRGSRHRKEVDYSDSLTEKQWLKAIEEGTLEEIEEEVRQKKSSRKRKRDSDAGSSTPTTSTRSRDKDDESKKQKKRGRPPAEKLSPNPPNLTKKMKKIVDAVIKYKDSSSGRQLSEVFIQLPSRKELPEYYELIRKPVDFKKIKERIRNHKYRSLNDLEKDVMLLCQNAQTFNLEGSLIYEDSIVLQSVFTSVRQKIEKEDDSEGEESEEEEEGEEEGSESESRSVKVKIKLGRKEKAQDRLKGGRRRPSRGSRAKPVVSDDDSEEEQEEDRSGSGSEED

Structure (SMILES) | DC50 (SMARCA2) | Dmax (SMARCA2) | DC50 (SMARCA4) | Dmax (SMARCA4)
Cc1ncsc1-c1ccc([C@H](C)NC(=O)[C@@H]2C[C@@H](O)CN2C(=O)[C@@H](c2cc(OCCN3CCC(N4CCC5(CC4)CNc4nnc(-c6ccccc6O)cc45)C3)no2)C(C)C)cc1 (stereo partly drawn) [Example 1, (2S,4R)-4-hydroxy-1-((2R)-2-(3-(2-(3-(3′-(2-hydroxyphenyl)-6′,7′-dihydrospiro[piperidine-4,5′-pyrrolo[2,3-c]pyridazin]-1-yl)pyrrolidin-1-yl)ethoxy)isoxazol-5-yl)-3-methylbutanoyl)-N-((S)-1-(4-(4-methylthiazol-5-yl)phenyl)ethyl) pyrrolidine-2-carboxamide] | < 100 nM | > 75% | ≥ 10000 nM | ≤ 50%
Cc1ncsc1-c1ccc([C@H](C)NC(=O)[C@@H]2C[C@@H](O)CN2C(=O)[C@@H](c2cc(OCCN3CCC(CN4CCC5(CC4)CNc4nnc(-c6ccccc6O)cc45)CC3)no2)C(C)C)cc1 [Example 3, (2S,4R)-4-hydroxy-1-((R)-2-(3-(2-(4-((3′-(2-hydroxyphenyl)-6′,7′-dihydrospiro[piperidine-4,5′-pyrrolo[2,3-c]pyridazin]-1-yl)methyl)piperidin-1-yl)ethoxy)isoxazol-5-yl)-3-methylbutanoyl)-N-((S)-1-(4-(4-methylthiazol-5-yl)phenyl)ethyl) pyrrolidine-2-carboxamide] | < 100 nM | 50 to 75% | ≥ 10000 nM | ≤ 50%
Cc1ncsc1-c1ccc([C@H](C)NC(=O)[C@@H]2C[C@@H](O)CN2C(=O)[C@@H](c2cc(OCCN3CCC(N4CCC5(CC4)CNc4nnc(-c6ccccc6O)cc4N5)C3)no2)C(C)C)cc1 (stereo partly drawn) [Example 6, (2S,4R)-4-hydroxy-1-((2R)-2-(3-(2-(3-(3′-(2-hydroxyphenyl)-7′,8′-dihydro-5′H-spiro [piperidine-4,6′-pyrazino[2,3-c]pyridazin]-1-yl)pyrrolidin-1-yl)ethoxy)isoxazol-5-yl)-3-methylbutanoyl)-N-((S)-1-(4-(4-methylthiazol-5-yl)phenyl)ethyl) pyrrolidine-2-carboxamide] | 1000 to 10000 nM | ≤ 50% | 100 to 1000 nM | > 75%
Cc1ncsc1-c1ccc([C@H](C)NC(=O)[C@@H]2C[C@@H](O)CN2C(=O)[C@@H](c2cc(OCCN3CCC(CN4CCCC5(CNc6nnc(-c7ccccc7O)cc6N5)C4)CC3)no2)C(C)C)cc1 (stereo partly drawn) [Example 7, (2S,4R)-4-hydroxy-1-((2R)-2-(3-(2-(4-((3′-(2-hydroxyphenyl)-7′,8′-dihydro-5′H-spiro[piperidine-3,6′-pyrazino[2,3-c]pyridazin]-1-yl)methyl)piperidin-1-yl)ethoxy)isoxazol-5-yl)-3-methylbutanoyl)-N-((S)-1-(4-(4-methylthiazol-5-yl)phenyl)ethyl) pyrrolidine-2-carboxamide] | < 100 nM | > 75% | < 100 nM | > 75%
Cc1ncsc1-c1ccc([C@H](C)NC(=O)[C@@H]2C[C@@H](O)CN2C(=O)[C@@H](c2cc(OCCN3CCC(CN4CCC5(CC4)CNc4nnc(-c6ccccc6O)cc4N5)CC3)no2)C(C)C)cc1 [Example 8, (2S,4R)-4-hydroxy-1-((R)-2-(3-(2-(4-((3′-(2-hydroxyphenyl)-7′,8′-dihydro-5′H-spiro [piperidine-4,6′-pyrazino[2,3-c]pyridazin]-1-yl)methyl)piperidin-1-yl)ethoxy)isoxazol-5-yl)-3-methylbutanoyl)-N-((S)-1-(4-(4-methylthiazol-5-yl)phenyl)ethyl) pyrrolidine-2-carboxamide] | < 100 nM | > 75% | < 100 nM | > 75%

Now from value to molecule:

DC50 (SMARCA2) | Dmax (SMARCA2) | DC50 (SMARCA4) | Dmax (SMARCA4) | Structure (SMILES)
< 100 nM | 50 to 75% | < 100 nM | > 75% | Cc1ncsc1-c1ccc([C@H](C)NC(=O)[C@@H]2C[C@@H](O)CN2C(=O)[C@@H](c2cc(OCCN3CCC(N4CCC5(CC4)CNc4nnc(-c6ccccc6O)cc4N5)CC3)no2)C(C)C)cc1 [Example 2, (2S,4R)-4-hydroxy-1-((R)-2-(3-(2-(4-(3′-(2-hydroxyphenyl)-7′,8′-dihydro-5′H-spiro[piperidine-4,6′-pyrazino[2,3-c]pyridazin]-1-yl)piperidin-1-yl)ethoxy)isoxazol-5-yl)-3-methylbutanoyl)-N-((S)-1-(4-(4-methylthiazol-5-yl)phenyl)ethyl) pyrrolidine-2-carboxamide]
< 100 nM | 50 to 75% | < 100 nM | > 75% | Cc1ncsc1-c1ccc([C@H](C)NC(=O)[C@@H]2C[C@@H](O)CN2C(=O)[C@@H](c2cc(OCCN3CCC(N4CCCC5(CNc6nnc(-c7ccccc7O)cc6N5)C4)C3)no2)C(C)C)cc1 (stereo partly drawn) [Example 4, (2S,4R)-4-hydroxy-1-((2R)-2-(3-(2-(3-(3′-(2-hydroxyphenyl)-7′,8′-dihydro-5′H-spiro[piperidine-3,6′-pyrazino[2,3-c]pyridazin]-1-yl)pyrrolidin-1-yl)ethoxy)isoxazol-5-yl)-3-methylbutanoyl)-N-((S)-1-(4-(4-methylthiazol-5-yl)phenyl)ethyl) pyrrolidine-2-carboxamide]
< 100 nM | 50 to 75% | < 100 nM | > 75% | Cc1ncsc1-c1ccc([C@H](C)NC(=O)[C@@H]2C[C@@H](O)CN2C(=O)[C@@H](c2cc(OCCN3CCC(N4CCCC5(CNc6nnc(-c7ccccc7O)cc6N5)C4)CC3)no2)C(C)C)cc1 (stereo partly drawn) [Example 5, (2S,4R)-4-hydroxy-1-((2R)-2-(3-(2-(4-(3′-(2-hydroxyphenyl)-7′,8′-dihydro-5′H-spiro[piperidine-3,6′-pyrazino[2,3-c]pyridazin]-1-yl)piperidin-1-yl)ethoxy)isoxazol-5-yl)-3-methylbutanoyl)-N-((S)-1-(4-(4-methylthiazol-5-yl)phenyl)ethyl) pyrrolidine-2-carboxamide]
